Test results reported in US20130029981A1, “COMPOUNDS, COMPOSITIONS, AND METHODS FOR CONTROLLING BIOFILMS” (Katholieke Universiteit Leuven, priority 2009, published 2013).
Like-named read-outs stand apart in the source and are kept apart here.

Legend:
S. Typhimurium ATCC14028 = experiment: Static peg assay for prevention of biofilm formation (Calgary device, crystal violet); assay type: cell-based, Salmonella Typhimurium
How it was run: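 Calgary 96-peg device, ca. 10^6 cells of ATCC14028 per well in TSB 1/20 for 24 h at 25° C (or 48 h at 16° C, medium and compound renewed at 24 h), or in CFA broth for 24 h at 37° C, static, with two-fold compound dilutions. Crystal violet stain, acetic acid extraction, OD570. IC50 from 2–3 independent experiments.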

[1] = tested on: Pseudomonas aeruginosa PA14; experiment: as above; assay type: cell-based
Experimental: (§1) Evaluation of the biofilm inhibitory activity of some substituted 2-amino-1H-imidazoles of the invention was carried out by growing up biofilms of S. Typhimurium ATCC14028 or SL1344 or Pseudomonas aeruginosa PA14 in the presence of different concentrations (1/2 dilution series) of biofilm inhibitors, by using the Calgary biofilm device. After an incubation period of 24 hours at 25° C. or 37° C. or 48 hours at 16° C. the biofilms were visualized by crystal violet staining. In the next step the stain was extracted from the biofilm with 30% acetic acid. The absorbance of the resolubilized stain at 570 nm is a measure of the amount of biofilm formed.
The device used for Pseudomonas aeruginosa biofilm formation is the same platform carrying polystyrene pegs as described above for Salmonella Typhimurium.
Two-fold serial dilutions of the compounds in 100 μl liquid broth per well were prepared in the microtiter plate. Subsequently, an overnight culture of P. aeruginosa PA14 (grown up in TSB medium) was diluted 1:100 into liquid broth and 100 μl was added to each well of the microtiter plates, resulting in a total amount of 200 μl medium per well. The pegged lid was placed on the microtiter plate and the plate was incubated for 24 hours at 25° C., 30° C. or 37° C. without shaking. During this incubation period biofilms were formed on the surface of the pegs. The liquid broth used for the tests at 25° C. was TSB 1/20. The tests at 37° C. were performed in CFA and/or LBNS broth. During incubation at 30° C. and 37° C. the plates were placed in a humidity controlled container to prevent evaporation of the growth medium. Quantification of biofilm formation was performed similarly as described previously for the S. Typhimurium biofilm assays.
as §1, with “imidazo[1,2-a]pyrimidinium bromide salts” for “2-amino-1H-imidazoles”
as §1, with “substituted imidazo[1,2-a]-pyrimidinium bromide and perchlorate salts produced according to examples 3 and 5” for “substituted 2-amino-1H-imidazoles of the invention”, “C.” for “C. or 37° C. or 48 hours at 16° C.”, “nm was taken as” for “nm is”

[2] = S. Typhimurium ATCC 14028, 25° C., read-out: S. Typhimurium IC50 (biofilm formation)
[3] = P. aeruginosa PA14, 25° C., read-out: P. aeruginosa IC50 (biofilm formation)
[4] = Table 21, S. Typhimurium ATCC14028, 25° C., read-out: S. Typhimurium IC50 (biofilm formation)
[5] = Table 21, P. aeruginosa PA14, 25° C., read-out: P. aeruginosa IC50 (biofilm formation)
[6] = 25° C., Table 16, read-out: S. Typhimurium IC50 (biofilm formation)
[7] = 25° C., Table 16, read-out: P. aeruginosa IC50 (biofilm formation)
[8] = 25° C., 24 hours, Table 15, read-out: (1) IC50 (biofilm inhibition)
[9] = 25° C., 24 hours, Table 15, read-out: (2) IC50 (biofilm inhibition)

SMILES | IC50 (S. Typhimurium ATCC14028; [2]) [µM] | IC50 [1, 3] [µM] | IC50 (S. Typhimurium ATCC14028; [6]) [µM] | IC50 [1, 7] [µM] | other results
CCCCNc1ncc(-c2ccc(Br)cc2)[nH]1 [Compound 102] | 7.1 | 9.8 |  |  | 
Clc1ccc(-c2cnc(NC3CCCCC3)[nH]2)cc1 [Compound 122] |  |  |  |  | IC50 (S. Typhimurium ATCC14028; [4]): > 800 µM; IC50 [1, 5]: ~25 µM
CC(C)CNc1nc(-c2ccccc2)c[nH]1 [Compound 84] | 4.9 | 1.2 |  |  | 
CC(C)N1c2nccc[n+]2CC1(O)c1ccc([N+](=O)[O-])cc1 (racemic) [Compound 30] |  |  | 466 | 192 | 
COc1ccc(-c2cnc(NC3CCCCC3)[nH]2)cc1 [Compound 125] |  |  |  |  | IC50 (S. Typhimurium ATCC14028; [4]): ~378 µM; IC50 [1, 5]: 54.8 µM
COc1ccc(-c2cnc(N)[nH]2)cc1 [Compound 106] | 120 | 186 |  |  | 
CC(C)(C)N1c2nccc[n+]2CC1(O)c1ccc([N+](=O)[O-])cc1 (stereo not drawn) [Compound 33] |  |  | 211 | 41.5 | 
c1ccc2c(-c3cnc(NCc4ccc5c(c4)OCO5)[nH]3)cccc2c1 [Compound 133] |  |  |  |  | IC50 (S. Typhimurium ATCC14028; Salmonella enterica, 25° C., Table 22, read-out: S. Typhimurium IC50 (biofilm formation)): 261 µM; IC50 ([1]; Pseudomonas aeruginosa, PA14, 25° C., Table 22, read-out: P. aeruginosa IC50 (biofilm formation)): 10.5 µM
CCCCCCCCCCCCCCN1c2nccc[n+]2CC1(O)c1ccc(Cl)cc1 (racemic) [Compound 27] |  |  | > 800 | > 800 | 
CCCCCNc1nc(-c2ccc(Cl)cc2)c[nH]1 [Compound 87] | > 400 | ~6.35 |  |  | 
CCCCCCCC[n+]1c(-c2cccc3ccccc23)cn2cccnc21.[O-][Cl+3]([O-])([O-])[O-] [1-octyl-2-(1-naphthalenyl)-imidazo[1,2-a]-pyrimidin-1-ium perchlorate] |  |  |  |  | IC50 (S. Typhimurium ATCC14028; Salmonella enterica, 24 h, read-out: (1) IC50 (biofilm inhibition)): ~6.6 µM; IC50 ([1]; Pseudomonas aeruginosa, PA14, 24 h, read-out: (2) IC50 (biofilm inhibition)): 6.83 µM
CCCCCCCCN1c2nccc[n+]2CC1(O)c1ccc(SC)cc1 (stereo not drawn) [Compound 51] |  |  |  |  | IC50 (S. Typhimurium ATCC14028; [8]): ~13.2 µM; IC50 (S. Typhimurium ATCC14028; 25° C., Table 17, read-out: S. Typhimurium IC50 (biofilm formation)): ~13.2 µM; IC50 [1, 9]: 29 µM; IC50 ([1]; 25° C., Table 17, read-out: P. aeruginosa IC50 (biofilm formation)): 36.5 µM
Clc1ccc(-c2cnc(NC3CCCC3)[nH]2)cc1Cl [Compound 121] |  |  |  |  | IC50 (S. Typhimurium ATCC14028; [4]): 5.7 µM; IC50 [1, 5]: 7.9 µM
CCCCCCCCCCCCCN1c2nccc[n+]2CC1(O)c1ccc(Cl)cc1 (racemic) [Compound 26] |  |  | 316 | > 800 | IC50 (S. Typhimurium ATCC14028; [8]): 316 µM; IC50 [1, 9]: 59 µM
CCCCCCCCCCCN1c2nccc[n+]2CC1(O)c1ccc(Cl)cc1 (racemic) [Compound 24] |  |  | 61.9 | > 800 | IC50 (S. Typhimurium ATCC14028; [8]): 61.9 µM; IC50 [1, 9]: 205 µM
CCCCCCCCNc1ncc(-c2ccc(S(C)(=O)=O)cc2)[nH]1 [Compound 116] | 41.8 | ~3.1 |  |  | 
Nc1ncc(-c2ccc(Br)cc2)[nH]1 [Compound 101] | 47.9 | 3.2 |  |  | 
CCCCCCCN1c2nccc[n+]2CC1(O)c1ccccc1 (racemic) [Compound 7] |  |  | 23.4 | 24.8 | IC50 (S. Typhimurium ATCC14028; [8]): 23.4 µM; IC50 [1, 9]: 5.89 µM
CN1c2nccc[n+]2CC1(O)c1ccccc1 (racemic) [Compound 1] |  |  | > 800 | 212 | 

SMILES | IC50 (S. Typhimurium ATCC14028; [2]) [µM] | IC50 [1, 3] [µM] | IC50 (S. Typhimurium ATCC14028; [6]) [µM] | IC50 [1, 7] [µM] | other results
CCCCNc1ncc(-c2ccc(OC)cc2)[nH]1 [Compound 107] | 52.6 | 46.3 |  |  | 
CC(C)Nc1nc(-c2ccccc2)c[nH]1 [Compound 82] | > 800 | 261 |  |  | 
CC(C)CN1c2nccc[n+]2CC1(O)c1ccc(Cl)cc1 (racemic) [Compound 17] |  |  | 31.4 | 83.4 | 
CCCCN1c2nccc[n+]2CC1(O)c1ccccc1 (racemic) [Compound 3] |  |  | 410 | > 400 | 
CCCCCCCCN1c2nccc[n+]2CC1(O)c1ccc(F)cc1 (stereo not drawn) [Compound 39] |  |  | 7.6 | 108 | IC50 (S. Typhimurium ATCC14028; [8]): 7.58 µM; IC50 [1, 9]: 7.12 µM
O=[N+]([O-])c1ccc(-c2cnc(NC3CCCCC3)[nH]2)cc1 [Compound 123] |  |  |  |  | IC50 (S. Typhimurium ATCC14028; [4]): 36.7 µM; IC50 [1, 5]: ~25 µM
O=[N+]([O-])c1ccc(-c2cnc(NC3CCCC3)[nH]2)cc1 [Compound 119] |  |  |  |  | IC50 (S. Typhimurium ATCC14028; [4]): 11.8 µM; IC50 [1, 5]: 20.2 µM
OC1(c2ccc(Cl)cc2)C[n+]2cccnc2N1C1CCCCCC1 (stereo not drawn) [Compound 65] |  |  |  |  | IC50 (S. Typhimurium ATCC14028; [8]): 27.9 µM; IC50 (S. Typhimurium ATCC14028; 25° C., Table 18, read-out: S. Typhimurium IC50 (biofilm formation)): 27.9 µM; IC50 [1, 9]: 63.8 µM; IC50 ([1]; 25° C., Table 18, read-out: P. aeruginosa IC50 (biofilm formation)): 76.2 µM
CCCCCCCCCN1c2nccc[n+]2CC1(O)c1ccccc1 (racemic) [Compound 9] |  |  | 8.3 | 55.7 | IC50 (S. Typhimurium ATCC14028; [8]): 8.26 µM; IC50 [1, 9]: 4.85 µM
COc1ccc(CNc2ncc(-c3ccc([N+](=O)[O-])cc3)[nH]2)cc1 [Compound 128] |  |  |  |  | IC50 (S. Typhimurium ATCC14028; 25° C., Table 22, read-out: S. Typhimurium IC50 (biofilm formation)): > 800 µM; IC50 ([1]; 25° C., Table 22, read-out: P. aeruginosa IC50 (biofilm formation)): > 800 µM
CC(C)CN1c2nccc[n+]2CC1(O)c1ccc([N+](=O)[O-])cc1 (stereo not drawn) [Compound 32] |  |  | 322 | 192 | 
CCCCCCCCCCN1c2nccc[n+]2CC1(O)c1ccc([N+](=O)[O-])cc1 (stereo not drawn) [Compound 36] |  |  | 9.9 | 22.3 | IC50 (S. Typhimurium ATCC14028; [8]): 9.95 µM
CCCCCCCCCCN1c2nccc[n+]2CC1(O)c1ccccc1 (racemic) [Compound 10] |  |  | 15 | 47 | IC50 (S. Typhimurium ATCC14028; [8]): 15 µM; IC50 [1, 9]: 3.95 µM
CCCCCCCCNc1nc(-c2ccc(Cl)cc2)c[nH]1 [Compound 88] | > 400 | ~1.6 |  |  | 
CCCCN1c2nccc[n+]2CC1(O)c1ccc([N+](=O)[O-])cc1 (stereo not drawn) [Compound 31] |  |  | 293 | 145 | 
O=[N+]([O-])c1cccc(-c2cnc(NC3CCCCC3)[nH]2)c1 [Compound 124] |  |  |  |  | IC50 (S. Typhimurium ATCC14028; [4]): 630 µM; IC50 [1, 5]: 4.4 µM
CCCCCCCCNc1ncc(-c2ccc(Br)cc2)[nH]1 [Compound 105] | 1.9 | > 800 |  |  | 
CCCCNc1ncc(-c2ccc([N+](=O)[O-])cc2)[nH]1 [Compound 93] | 702 | > 800 |  |  | 
CCCCCCNc1ncc(-c2ccc(F)cc2)[nH]1 [Compound 99] | > 400 | ~12.5 |  |  | 
